Results: paper PMC9953095, “Design, Synthesis and Biological Evaluation of Quinazolinamine Derivatives as Breast Cancer Resistance Protein and P-Glycoprotein Inhibitors with Improved Metabolic Stability” (Biomolecules, 2023)
Several values for one entry are separate records, joined by “and”; a condition that tells them apart may be missing. Equal entries are not always repeated. Where two headings read alike, the source gives them in different places.

Key:
[1] = Metabolic stability with human liver microsomes; format: in vitro ADME; conditions: after 1 h of incubation with human liver microsomes, 37 °C, NADPH; also: tested at 200 µM
Description: Human liver microsome (20 mg/mL) 6.25 µL, nicotinamide adenine dinucleotide phosphate (NADPH) (0.75 µmol), MgCl2 (0.75 µmol), and the test compound (0.05 µmol) were added into a potassium phosphate buffer (pH 7.4) with 250 µL of final volume. The incubation was carried out aerobically at 37 °C. The mixture was pre-incubated without NADPH for 10 min at 37 °C and NADPH was added to start the reaction. At 1 h after the start of the reaction, an aliquot (50 µL) of the incubation mixture was taken from each incubation and mixed with 150 µL of ice-cold acetonitrile to terminate the reaction. Subsequently, the sample was centrifuged (12,000 rpm) at room temperature. The resulting supernatant was filtered and analyzed using HPLC (LC, Agilent 1200; column, HC-C18(2); column temperature, 25 °C; mobile phase, solvent A, methanol, solvent B, water; gradient elution, 30–99% solvent A; flow rate, 1 mL/min; UV signals were recorded at 254 nm).

[2] = system: BCRP-overexpressing H460/MX20 cells; test: [3H]-mitoxantrone accumulation assay, H460/MX20; format: cell-based, human
Description: (§1) To determine the accumulation of drugs on H460, H460/MX20, KB-3-1, and KB-C2 cells, the cells ([…] cells/well) were seeded in the 24-well plates and incubated at 37 °C with 5% CO2 [17]. After 12 h of incubation, a test compound (5 µM) was added and the plates were incubated at 37 °C for 2 h. Cells were then incubated with 0.01 µM [^3H]-MX or [^3H]-paclitaxel-containing medium for an additional 2 h at 37 °C, with or without a test compound. The cells were washed twice with ice-cold phosphate-buffered saline (PBS), trypsinized and lysed at the end of incubation. The radioactivity was measured using the Packard TRICARB1 1900A liquid scintillation analyzer.

[3] = system: BCRP localization in H460/MX20 cells; test: Immunofluorescence assay of BCRP localization in H460/MX20 cells; format: cell-based, human; conditions: 5 μM for 24, 48, and 72 h, Figure 8A,C
Description: For immunofluorescence analysis, parental and drug-resistant cells were seeded in 24-well plates at 10,000–20,000 cells/well and incubated for 24 h. The cells were incubated with or without cyclopropyl quinazolinamine 22 or azide quinazolinamine 33 for 24 h, 48 h, and 72 h. Thereafter, cells were washed with PBS and fixed with 4% paraformaldehyde for 10 min at room temperature and then rinsed with PBS twice, followed by permeabilization with 1% Triton X-100 for 10 min at 4 °C. The cells were again washed twice with PBS, and then blocked with 6% BSA for 1 h at 37 °C. Fixed cells were incubated with monoclonal antibody against the BCRP protein (BXP 21) (Sigma-Aldrich, Inc., St. Louis, MO) (1:1000) or P-gp (F4) (Sigma-Aldrich, Inc., St. Louis, MO, USA) overnight at 4 °C, followed by two washes with PBS. The cells were then further incubated with Alexa flour 488 goat anti-mouse IgG (1:1000) (Abcam plc.) for 2 h at 37 °C. After the cells were washed twice with PBS, 4′,6-diamidino-2-phenylindole (DAPI) (2 µg/mL) was used for nuclear counterstaining. The immunofluorescence images were generated using a Nikon TE-2000S fluorescence microscope (Nikon Instruments Inc, Melville, NY, USA).

[4] = system: BCRP protein in H460/MX20 cells; test: Western blot of BCRP expression in H460/MX20 cells; format: cell-based, human; conditions: H460/MX20 total cell lysate; Figure 7
Description: Cells in T25 flask were washed with ice-cold PBS. Lysis buffer (100 µL) was added into T25 flask. Using a cell scraper, scrape adherent cells were scraped off the flask and the cell suspension was transferred into a microcentrifuge tube (1.5 mL). Cells were agitated for 20 min at 4 °C and cell lysate was centrifuged mixture at 4 °C for 20 min at 12,000 rpm. The supernatant (lysate) was used for the gel electrophoresis. Equal amounts of total cell lysates (20 µg protein) were resolved by sodium dodecyl sulfate polyacrylamide gel electrophoresis (SDS-PAGE) and electrophoretically transferred onto polyvinylidene fluoride (PVDF) membranes. After incubation in a blocking solution (5% milk) for 2 h at room temperature, the membranes were incubated overnight with primary monoclonal antibodies against GAPDH (GA1R) (Invitrogen, Carlsbad, CA, USA) at 1:1000 dilution of BCRP protein (BXP 21) (Sigma-Aldrich, Inc., St. Louis, MO, USA) (1:1000) or P-gp (F4) (Sigma-Aldrich, Inc., St. Louis, MO, USA) at 4 °C, and were further incubated with horseradish […] (HRP)-conjugated secondary antibody (Thermo Fisher Scientific Inc., Waltham, MA, USA) at 1:1000 dilution for 2 h at room temperature. The protein antibody complex was detected using an enhanced chemiluminescence detection system. The grayscale ratio was analyzed by ImageJ and normalized by the grayscale of the ABC protein divided by that of GAPDH.

H460 cells = test: [3H]-mitoxantrone accumulation assay, H460; format: cell-based, human; conditions: parental H460 cells; compound 5 μM; Figure 6A
Description: as §1

BCRP ATPase = target: T1, BCRP ATPase (Homo sapiens, UniProt Q9UNQ0); test: Vanadate-sensitive BCRP ATPase assay; format: biochemical; conditions: membrane vesicles of High Five insect cells; Figure 10A,B
T1 construct: host or cells: High Five insect cells (membrane vesicles)
T1 sequence (Q9UNQ0 1-655): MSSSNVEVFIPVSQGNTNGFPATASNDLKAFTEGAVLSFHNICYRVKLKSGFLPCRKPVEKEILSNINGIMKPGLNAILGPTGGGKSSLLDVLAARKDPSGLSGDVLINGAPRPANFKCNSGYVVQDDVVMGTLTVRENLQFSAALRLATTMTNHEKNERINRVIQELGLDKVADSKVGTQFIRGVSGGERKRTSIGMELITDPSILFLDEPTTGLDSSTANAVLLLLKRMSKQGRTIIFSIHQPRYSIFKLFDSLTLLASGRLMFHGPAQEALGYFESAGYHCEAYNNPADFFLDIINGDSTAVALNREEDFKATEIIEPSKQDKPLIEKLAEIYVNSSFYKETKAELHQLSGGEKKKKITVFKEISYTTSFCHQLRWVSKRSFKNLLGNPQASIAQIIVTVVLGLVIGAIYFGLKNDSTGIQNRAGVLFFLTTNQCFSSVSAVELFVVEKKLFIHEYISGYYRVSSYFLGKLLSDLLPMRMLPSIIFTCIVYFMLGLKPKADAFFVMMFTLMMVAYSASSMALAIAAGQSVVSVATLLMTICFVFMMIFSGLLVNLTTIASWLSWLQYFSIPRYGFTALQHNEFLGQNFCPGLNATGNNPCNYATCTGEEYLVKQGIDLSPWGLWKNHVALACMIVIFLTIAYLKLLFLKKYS
Description: The vanadate (Vi)-sensitive ATPase activity of BCRP and P-gp in the membrane vesicles of High Five insect cells was measured as described previously. The results were presented as vanadate-sensitive ATPase activities by determining the difference in inorganic phosphate liberation measured in the presence and absence of sodium orthovanadate.

[5] = system: human lung cancer cell line H460; test: MTT reversal assay with mitoxantrone, parental H460 cells; format: cell-based; conditions: NCI-H460, H460, mitoxantrone alone, read-out: IC50 ± SD of mitoxantrone
Description: (§2) The human lung cancer cell line H460, and its MX-selected derivative BCRP-overexpressing cell line, H460/MX20, were used in this study. The KB-C2 cell line was selected by colchicine (Alfa Aesar, Haverhill, MA, USA) (2 μg/mL) with human cervical carcinoma cell line KB-3-1.
(§3) Cytotoxicity tests and reversal experiments were performed using the 3-(4,5-dimethylthiazol-2-yl)-2,5-diphenyltetrazolium bromide (MTT) colorimetric assay. Cells were seeded evenly into 96-well plates. […] To determine the MDR reversal efficacy of the quinazolinamine derivatives, an anticancer drug (mitoxantrone, colchicine, paclitaxel or cisplatin) was added into the designated wells after 2 h pre-incubation with a quinazolinamine derivative or a positive control inhibitor at non-toxic concentrations. After 72 h of drug incubation, the MTT reagent (4 mg/mL) was added into the wells, and then the plates were incubated for an additional 4 h. Subsequently, the supernatant was discarded and 100 µL of dimethyl sulfoxide (DMSO) was added to dissolve the formazan crystals. Cell viability was determined by measuring the absorbance by using an accuSkan™ GO UV/Vis Microplate Spectrophotometer (Fisher Sci., Fair Lawn, NJ, USA) at a wavelength of 570 nm.

[6] = system: BCRP-mediated MDR cell line H460/MX20; test: MTT reversal assay with mitoxantrone, BCRP-overexpressing H460/MX20 cells; format: cell-based; conditions: Homo sapiens, NCI-H460/MX20, H460/MX20, mitoxantrone alone, read-out: IC50 ± SD of mitoxantrone
Description: as §2, §3

[7] = system: P-gp-mediated multidrug-resistant cell line KB-C2; test: cells; conditions: Homo sapiens, KB-C2, read-out: IC50 value of colchicine
Description: as §2, §3

CCc1ccc(Nc2nc(-c3ccncc3)nc3ccccc23)cc1 [Compound 4, N-(4-Ethylphenyl)-2-(pyridin-4-yl)quinazolin-4-amine]
melting point: 228 to 230 °C
Metabolic Stability, % compound remaining [1]: 87 ± 12%

CCCc1ccc(Nc2nc(-c3ccncc3)nc3ccccc23)cc1 [Compound 5, N-(4-Propylphenyl)-2-(pyridin-4-yl)quinazolin-4-amine]
melting point: 212 to 214 °C
Metabolic Stability, % compound remaining [1]: 80 ± 5%

CC(C)c1ccc(Nc2nc(-c3ccncc3)nc3ccccc23)cc1 [Compound 23, N-(4-Isopropylphenyl)-2-(pyridin-4-yl)quinazolin-4-amine]
Metabolic Stability, % compound remaining [1]: 75 ± 6%

CCc1cccc(Nc2nc(-c3ccncc3)nc3ccccc23)c1 [Compound 24, N-(3-Ethylphenyl)-2-(pyridin-4-yl)quinazolin-4-amine]
Metabolic Stability, % compound remaining [1]: 91 ± 3%

COc1ccc(Nc2nc(-c3ccncc3)nc3ccccc23)cc1 [Compound 27, N-(4-Methoxyphenyl)-2-(pyridin-4-yl)quinazolin-4-amine]
Metabolic Stability, % compound remaining [1]: 83 ± 1%

[N-]=[N+]=Nc1ccc(Nc2nc(-c3ccncc3)nc3ccccc23)cc1 [Compound 33, N-(4-Azidophenyl)-2-(pyridin-4-yl)quinazolin-4-amine]
accumulation of mitoxantrone after UV light activation ([2]; H460/MX20, compound followed by UV light activation): increased compared to the group without activation
accumulation of mitoxantrone ([2]; resistant H460/MX20 cells, compound 5 μM, Figure 6A): increased the accumulation
BCRP fluorescence on the membranes / intracellular localization of BCRP [3]: did not change the intracellular localization
expression level of BCRP protein [4]: not altered
accumulation of mitoxantrone (H460 cells): slightly increase
Metabolic Stability, % compound remaining [1]: 86 ± 11%
effect on Vi-sensitive BCRP ATPase activity (ATP hydrolysis) (BCRP ATPase): significantly stimulated

COc1ccc2c3c([nH]c2c1)[C@H](CC(C)C)N1C(=O)[C@H](CCC(=O)OC(C)(C)C)NC(=O)[C@@H]1C3 [Ko143, reference compound]
Metabolic Stability, % compound remaining [1]: 41% and 41 ± 7%

O=C1c2c(O)ccc(O)c2C(=O)c2c(NCCNCCO)ccc(NCCNCCO)c21 [Mitoxantrone]
IC50 ([5]; Table 1 series): 0.072 ± 0.009 µM
IC50 ([5]; Table 2 series): 0.154 ± 0.051 µM
IC50 ([6]; Table 1 series): 5.66 ± 0.29 µM
IC50 ([6]; Table 2 series): 6.5 ± 0.14 µM

COc1cc2c(c(OC)c1OC)-c1ccc(OC)c(=O)cc1[C@@H](NC(C)=O)CC2 [colchicine]
IC50 [7]: 7.34 µM
